Data on five compounds can be found in patent US10624845B2 (The Procter & Gamble Company, priority 2015, dated 2020).

Broadly, the Papp is the rate of passage across a membrane or cell layer, normalised by area and donor concentration. Low readings indicate slow passage, high ones fast passage.

Data set [1] has as its system buccal tissue (EpiOral® tissues). As to conditions: for Average Apparent Permeability Coefficient Papp: donor pH 9.0, receiver pH 7.4, co-dosed 100 μM (caffeine 50 μM), n=6.
Data set [2] shares this test system. Nature of the data set: Permeability Enhancer Assay (Permeability Enhancer Test). Particulars: pH 5.0; reference […]10^−6 cm/s.
Excerpt: The donor side was not sampled and donor concentration was not measured.
The nature of a further data set: in vitro. Particulars: human.

Consider `Cn1c(=O)c2c(ncn2C)n(C)c1=O` [Caffeine], for which the “Average Apparent Permeability Coefficient Papp” value in data set [1] was 33.3 ± 3.55 10^−6 cm/s. In data set [1] (pH 9.0 vs pH 5.0 and 7.4), the “change of Papp at pH 9.0 compared to that at pH 5.0 and 7.4” value was “only moderately increased”.

As to `CCCCCCCCCCCCCCCC[n+]1ccccc1` [Cetylpyridinium chloride], the “effect of the enhancer on the Papp of diphenhydramine versus reference Papp from the Permeability Test” value in data set [2] was “higher”.

Take `CC(C)NCC(O)COc1cccc2ccccc12` (stereo not drawn) [Propranolol]: the figures for the apparent permeability coefficient (Papp) at 120 min, 100 μM in the data set “in vitro” (pH 5), in the data set “in vitro” (pH 7.4) and in “in vitro” (pH 9) were 1.45 ×10⁻⁶ cm/s, 9.35 ×10⁻⁶ cm/s and 21.5 ×10⁻⁶ cm/s, respectively. Besides, the “Average Apparent Permeability Coefficient Papp” value in data set [1] was 21.5 ± 4.66 10^−6 cm/s.

With `CCCCCCCCCCCCOS(=O)(=O)[O-].[Na+]` [SDS, sodium dodecyl sulfate], the “effect of the enhancer on the Papp of diphenhydramine versus reference Papp from the Permeability Test” value in data set [2] is listed as “lower”.

In the case of `CCCCCCCCCC(=O)[O-].[Na+]` [Sodium Caprate], the “effect of the enhancer on the Papp of diphenhydramine versus reference Papp from the Permeability Test” value in data set [2] was “higher”.
